{"source": "patent US10111881B2", "about": "(priority 2016, dated 2018)", "key": {"NPC1 C-loop": {"target": "T1, NPC1 C-loop (Homo sapiens, UniProt O15118)", "T1 construct": "C-loop", "T1 sequence (O15118 372-620 limits assumed)": "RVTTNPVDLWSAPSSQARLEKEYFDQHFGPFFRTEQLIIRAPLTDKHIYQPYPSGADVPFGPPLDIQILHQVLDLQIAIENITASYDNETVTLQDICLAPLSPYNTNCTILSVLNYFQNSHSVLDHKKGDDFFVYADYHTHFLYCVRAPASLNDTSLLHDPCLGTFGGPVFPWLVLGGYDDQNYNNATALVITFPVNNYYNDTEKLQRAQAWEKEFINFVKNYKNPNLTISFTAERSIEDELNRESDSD", "assay": "NPC1 C-loop binding"}, "EBOV [1]": {"test_system": "EBOV", "type": "cell-based, Zaire Ebolavirus (Mayinga strain)"}, "EEA1-positive vesicles": {"test_system": "EEA1-positive vesicles", "type": "cell-based, human"}, "Cathepsin": {"test_system": "Cathepsin", "assay": "Cathepsin cleavage of GP"}, "EBOV [2]": {"test_system": "EBOV", "assay": "microbe, parasite or virus in culture", "type": "cell-based, Zaire Ebolavirus (Mayinga strain)", "details": "read-out: Activity in macrophages IC50"}, "MARV": {"test_system": "MARV", "assay": "microbe, parasite or virus in culture", "type": "cell-based, Marburgvirus (Musoke strain)"}, "HeLa cells [3]": {"test_system": "HeLa cells", "type": "cell-based, human", "details": "for Dextran Uptake: 50 μM"}, "HeLa cells [4]": {"test_system": "HeLa cells", "type": "cell-based, human", "details": "for Transferrin uptake: 50 μM"}, "EBOV [5]": {"test_system": "EBOV", "assay": "organism not typed", "type": "cell-based, Zaire Ebolavirus (Mayinga strain)"}, "[6]": {"test_system": "Baby hamster kidney fibroblasts (BHK) cells", "assay": "Acridine orange assay for acidification blockers", "type": "cell-based"}, "LAMP1-positive vesicles": {"test_system": "LAMP1-positive vesicles", "type": "cell-based, human"}, "IL-1-Beta": {"test_system": "IL-1-Beta", "details": "PubChem / MLSMR data; cited from earlier work"}, "HeLa cells [7]": {"test_system": "HeLa cells"}}, "note": "Entries after “also recorded” stand apart in the source; their conditions may differ. Like-named read-outs stand apart in the source and are kept apart here."}
{"smiles": "Cc1nn2c(NCCCN(C)C)c3c(nc2c1-c1ccccc1)CCCC3", "note": "[MLS000762907]", "values": [{"measurement": "NPC1 C-loop binding", "setting": "NPC1 C-loop", "result": 0}, {"measurement": "Surface interaction", "setting": "EBOV [1]", "result": 0}, {"measurement": "Uninfected cell number", "setting": "EBOV [1]", "result": 0}, {"measurement": "virus particle binding to cell surface", "setting": "EBOV [1]", "result": "did not affect"}, {"measurement": "Effect on EEA1", "setting": "EEA1-positive vesicles", "result": 0}, {"measurement": "VLP colocalization with EEA1", "setting": "EEA1-positive vesicles", "result": "colocalized with EEA1 positive vesicles normally; also recorded: no effect"}, {"measurement": "Cathepsin clevage", "setting": "Cathepsin", "result": 0}, {"measurement": "IC50", "setting": "EBOV [2]", "result": 23.4, "unit": "µM"}, {"measurement": "Curve class (MARV)", "setting": "MARV", "result": 1.3}, {"measurement": "MARV (Curve class)", "setting": "MARV", "result": 1.3}, {"measurement": "IC50", "setting": "MARV; read-out: IC-50 (MARV)", "result": 12.5, "unit": "µM"}, {"measurement": "IC50", "setting": "MARV; read-out: MARV HeLa IC50", "result": 12.5, "unit": "µM"}, {"measurement": "effect on macropinocytic uptake of dextran", "setting": "HeLa cells [3]", "result": "not of dextran; also recorded: did not affect"}, {"measurement": "Dextran Uptake", "setting": "HeLa cells [3]", "result": 0}, {"measurement": "effect on transferrin uptake", "setting": "HeLa cells [4]", "result": "inhibited transferrin uptake; also recorded: reduced uptake of transferrin; also recorded: blocked uptake of transferrin"}, {"measurement": "Transferrin uptake", "setting": "HeLa cells [4]", "result": "−"}, {"measurement": "Curve Class (EBOV)", "setting": "EBOV [5]", "result": 1.3}, {"measurement": "EBOV (curve class)", "setting": "EBOV [5]", "result": 1.3}, {"measurement": "IC50", "setting": "EBOV [5]; read-out: EBOV HeLa IC50", "result": 3.2, "unit": "µM"}, {"measurement": "IC50", "setting": "EBOV [5]; read-out: IC-50 (EBOV)", "result": 3.19, "unit": "µM"}, {"measurement": "Acidification Block", "setting": "[6]", "result": "+"}, {"measurement": "Effect on LAMP1", "setting": "LAMP1-positive vesicles", "result": 0}, {"measurement": "VLP colocalization with LAMP1", "setting": "LAMP1-positive vesicles", "result": "no effect"}]}
{"smiles": "CC(C)(CS(=O)(=O)[O-])NC(=O)CC[N+](C)(C)CCO", "note": "[MLS000554255]", "values": [{"measurement": "NPC1 C-loop binding", "setting": "NPC1 C-loop", "result": 0}, {"measurement": "Surface interaction", "setting": "EBOV [1]", "result": 0}, {"measurement": "Uninfected cell number", "setting": "EBOV [1]", "result": "+"}, {"measurement": "number of cells without virus bound", "setting": "EBOV [1]", "result": "increased the number of cells without virus bound"}, {"measurement": "Effect on EEA1", "setting": "EEA1-positive vesicles", "result": "+"}, {"measurement": "increase of colocalization of VLPs with EEA1-positive vesicles", "setting": "EEA1-positive vesicles", "result": 83, "unit": "%"}, {"measurement": "Cathepsin clevage", "setting": "Cathepsin", "result": 0}, {"measurement": "IC50", "setting": "EBOV [2]", "result": 6, "unit": "µM"}, {"measurement": "Curve class (MARV)", "setting": "MARV", "result": 1.3}, {"measurement": "MARV (Curve class)", "setting": "MARV", "result": 1.3}, {"measurement": "IC50", "setting": "MARV; read-out: IC-50 (MARV)", "result": 6.39, "unit": "µM"}, {"measurement": "IC50", "setting": "MARV; read-out: MARV HeLa IC50", "result": 6.4, "unit": "µM"}, {"measurement": "Dextran Uptake", "setting": "HeLa cells [3]", "result": 0}, {"measurement": "effect on transferrin uptake", "setting": "HeLa cells [4]", "result": "do not inhibit transferrin uptake"}, {"measurement": "Transferrin uptake", "setting": "HeLa cells [4]", "result": 0}, {"measurement": "Curve Class (EBOV)", "setting": "EBOV [5]", "result": 1.5}, {"measurement": "EBOV (curve class)", "setting": "EBOV [5]", "result": 1.5}, {"measurement": "IC50", "setting": "EBOV [5]; read-out: EBOV HeLa IC50", "result": 6.8, "unit": "µM"}, {"measurement": "IC50", "setting": "EBOV [5]; read-out: IC-50 (EBOV)", "result": 6.84, "unit": "µM"}, {"measurement": "Acidification Block", "setting": "[6]", "result": "−"}, {"measurement": "Effect on LAMP1", "setting": "LAMP1-positive vesicles", "result": "−"}, {"measurement": "reduction of number of VLPs present in LAMP1-positive vesicles", "setting": "LAMP1-positive vesicles", "result": 33, "unit": "%"}]}
{"smiles": "C=C(c1ccc(O)cc1)c1ccc(O)cc1", "note": "[MLS000078751]", "values": [{"measurement": "secretion of IL-1-Beta", "setting": "IL-1-Beta", "result": "inhibit secretion of IL-1-Beta"}, {"measurement": "NPC1 C-loop binding", "setting": "NPC1 C-loop", "result": 0}, {"measurement": "Surface interaction", "setting": "EBOV [1]", "result": "−"}, {"measurement": "Uninfected cell number", "setting": "EBOV [1]", "result": "+"}, {"measurement": "decrease in total viral particles bound to cell surface", "setting": "EBOV [1]", "result": 53, "unit": "%"}, {"measurement": "virus particle uptake", "setting": "EBOV [1]", "result": "reduced particle uptake"}, {"measurement": "Cathepsin clevage", "setting": "Cathepsin", "result": 0}, {"measurement": "IC50", "setting": "EBOV [2]", "result": "~25", "unit": "µM"}, {"measurement": "Curve class (MARV)", "setting": "MARV", "result": 1.5}, {"measurement": "MARV (Curve class)", "setting": "MARV", "result": 1.5}, {"measurement": "IC50", "setting": "MARV; read-out: IC-50 (MARV)", "result": 6.13, "unit": "µM"}, {"measurement": "IC50", "setting": "MARV; read-out: MARV HeLa IC50", "result": 6.1, "unit": "µM"}, {"measurement": "Dextran Uptake", "setting": "HeLa cells [3]", "result": 0}, {"measurement": "Transferrin uptake", "setting": "HeLa cells [4]", "result": 0}, {"measurement": "Curve Class (EBOV)", "setting": "EBOV [5]", "result": 1.3}, {"measurement": "EBOV (curve class)", "setting": "EBOV [5]", "result": 1.3}, {"measurement": "IC50", "setting": "EBOV [5]; read-out: EBOV HeLa IC50", "result": 25.6, "unit": "µM"}, {"measurement": "IC50", "setting": "EBOV [5]; read-out: IC-50 (EBOV)", "result": 25.6, "unit": "µM"}, {"measurement": "Acidification Block", "setting": "[6]", "result": "−"}]}
{"smiles": "Cc1cc(N2CCN(C)CC2)nc2ccc(NC(=S)NCCCN3CCc4ccccc4C3)cc12", "note": "[MLS000730532]", "values": [{"measurement": "secretion of IL-1-Beta", "setting": "IL-1-Beta", "result": "inhibit secretion of IL-1-Beta"}, {"measurement": "NPC1 C-loop binding", "setting": "NPC1 C-loop", "result": 0}, {"measurement": "Surface interaction", "setting": "EBOV [1]", "result": 0}, {"measurement": "Uninfected cell number", "setting": "EBOV [1]", "result": 0}, {"measurement": "reduction of number of viral particles inside the cell body", "setting": "EBOV [1]", "result": 89, "unit": "%"}, {"measurement": "Cathepsin clevage", "setting": "Cathepsin", "result": 0}, {"measurement": "IC50", "setting": "EBOV [2]", "result": 9.5, "unit": "µM"}, {"measurement": "Curve class (MARV)", "setting": "MARV", "result": 1.3}, {"measurement": "MARV (Curve class)", "setting": "MARV", "result": 1.3}, {"measurement": "IC50", "setting": "MARV; read-out: IC-50 (MARV)", "result": 1.93, "unit": "µM"}, {"measurement": "IC50", "setting": "MARV; read-out: MARV HeLa IC50", "result": 1.9, "unit": "µM"}, {"measurement": "reduction of uptake of fluorescently labeled dextran", "setting": "HeLa cells [3]", "result": "~74", "unit": "%"}, {"measurement": "Dextran Uptake", "setting": "HeLa cells [3]", "result": "−"}, {"measurement": "effect on transferrin uptake", "setting": "HeLa cells [4]", "result": "impaired uptake of this marker, comparable to chlorpromazine"}, {"measurement": "Transferrin uptake", "setting": "HeLa cells [4]", "result": "−"}, {"measurement": "IC50", "setting": "EBOV [5]; read-out: EBOV HeLa IC50", "result": 1.6, "unit": "µM"}, {"measurement": "IC50", "setting": "EBOV [5]; read-out: IC-50 (EBOV)", "result": 1.56, "unit": "µM"}, {"measurement": "Acidification Block", "setting": "[6]", "result": "+"}, {"measurement": "effect on endosomal acidification", "setting": "[6]", "result": "affected endosomal acidification"}]}
{"smiles": "CCN(c1nc(N)c(C(=O)NC(=N)N)nc1Cl)C(C)C", "note": "[EIPA, reference compound]", "values": [{"measurement": "reduction of uptake of fluorescently labeled dextran", "setting": "HeLa cells [3]", "result": 95, "unit": "%"}, {"measurement": "toxic concentration (not toxic up to / toxic at)", "setting": "HeLa cells [7]", "result": 37, "unit": "µM"}, {"measurement": "effect on endosomal acidification", "setting": "[6]", "result": "decreases endosomal acidification"}]}
